Experimental data published in PMC8222254, “Self-assembly of an anion receptor with metal-dependent kinase inhibition and potent in vitro anti-cancer properties” (Nature Communications, 2021).
“And” between values parts separate entries of the source, which are not always exact repeats. Identical values can stand only once. Like-named read-outs stand apart in the source and are kept apart here.

How the values were obtained:
Assay in all cases: Chemosensitivity, 96 h continuous exposure, MTT assay
Assay type in all cases: cell-based, human
PSN1 = test system: PSN1
Summary of the method: (§1)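 Growth inhibition is measured by MTT after cells are dosed for 96 h without washout. The 50% growth-reduction concentration is then interpolated from the curves.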

HCT116 p53-/- = test system: HCT116 p53-/-
Summary of the method: (§2)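 Cells seeded at 2 × 10^3/well (GBM1 3 × 10^3/well) and left overnight at 37 °C, then exposed continuously for 96 h to a range of compound concentrations (final DMSO 0.2%). Viability read by MTT, absorbance at 540 nm; IC50 taken from dose-response curves as concentration reducing cell growth by 50%.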

H460 = test system: H460
Summary of the method: as §1

MiaPaCa2 = test system: MiaPaCa2
Summary of the method: as §2

A549 = test system: A549
Summary of the method: as §2

HT-29 = test system: HT-29
Summary of the method: as §2

ARPE-19 non-cancer cells = test system: ARPE-19 non-cancer cells
Summary of the method: as §2

CC(=O)[O-].CC(=O)[O-].CC(=O)[O-].O=P([O-])([O-])[O-].[Zn+2].[Zn+2].[Zn+2].c1ccc(-c2csc(NCCN(CCNc3nc(-c4ccccn4)cs3)CCNc3nc(-c4ccccn4)cs3)n2)nc1.c1ccc(-c2csc(NCCN(CCNc3nc(-c4ccccn4)cs3)CCNc3nc(-c4ccccn4)cs3)n2)nc1 [[L2Zn3(PO4)]3+] was tested, and the “Selectivity index (ARPE19)” value (PSN1; IC50 ARPE-19 / IC50 PSN1) was 19.60, the “Selectivity index (MCF10A)” value (PSN1; IC50 MCF10A / IC50 PSN1) was 2.16 and the IC50 (PSN1; PSN1, mean of replicates, read-out: Mean IC50) was 6680 nM. The IC50 (PSN1; PSN1, read-out: Mean IC50 values) was 6680 nM, the IC50 (PSN1; PSN1, single replicate, read-out: IC50 values for each replicate) was 6730 nM and 6480 nM and 6840 nM and the “Relative potency (+ anion to no anion), Ratio + anion:no anion” value (“Relative potency … Ratio + anion:no anion” below) (PSN1; ratio of IC50, PSN1) was 1.50. For the same compound, the “Selectivity indices relative to ARPE-19, Ratio + anion:no anion” value (PSN1; ratio of SI (ARPE-19), PSN1) was 0.554, the “Selectivity indices relative to MCF10A, Ratio + anion:no anion” value (PSN1; ratio of SI (MCF 10A), PSN1) was 0.059 and the IC50 (HCT116 p53-/-; HCT116 p53-/-, read-out: Mean IC50 values) was 78 nM. The IC50 (HCT116 p53-/-; HCT116 p53-/-, single replicate, read-out: IC50 values for each replicate) was 61 nM and 91 nM and 64 nM, the “Selectivity index (ARPE19)” value (HCT116 p53-/-; IC50 ARPE-19 / IC50 HCT116 p53-/-) was 1679.10 and the “Selectivity index (MCF10A)” value (HCT116 p53-/-; IC50 MCF10A / IC50 HCT116 p53-/-) was 184.91. The “Relative potency … Ratio + anion:no anion” value (HCT116 p53-/-; ratio of IC50, HCT116 p53-/-) was 1.08, the “Selectivity indices relative to ARPE-19, Ratio + anion:no anion” value (HCT116 p53-/-; ratio of SI (ARPE-19), HCT116 p53-/-) was 0.769 and the “Selectivity indices relative to MCF10A, Ratio + anion:no anion” value (HCT116 p53-/-; ratio of SI (MCF 10A), HCT116 p53-/-) was 0.082. The IC50 (H460; H460, mean of replicates, read-out: Mean IC50) was 249 nM, the IC50 (H460; H460, read-out: Mean IC50 values) was 249 nM and the IC50 (H460; H460, single replicate, read-out: IC50 values for each replicate) was 241 nM and 263 nM and 265 nM and 226 nM. The “Selectivity index (ARPE19)” value (H460; IC50 ARPE-19 / IC50 H460) was 525.98, the “Selectivity index (MCF10A)” value (H460; IC50 MCF10A / IC50 H460) was 57.92 and the “Relative potency … Ratio + anion:no anion” value (H460; ratio of IC50, H460) was 0.69. The “Selectivity indices relative to ARPE-19, Ratio + anion:no anion” value (H460; ratio of SI (ARPE-19), H460) was 1.204, the “Selectivity indices relative to MCF10A, Ratio + anion:no anion” value (H460; ratio of SI (MCF 10A), H460) was 0.129 and the “Selectivity index (ARPE19)” value (MiaPaCa2; IC50 ARPE-19 / IC50 MiaPaCa2) was 2.94. The “Selectivity index (MCF10A)” value (MiaPaCa2; IC50 MCF10A / IC50 MiaPaCa2) was 0.32, the IC50 (MiaPaCa2; MiaPaCa2, mean of replicates, read-out: Mean IC50) was 44500 nM and the IC50 (MiaPaCa2; MiaPaCa2, read-out: Mean IC50 values) was 44500 nM. The IC50 (MiaPaCa2; MiaPaCa2, single replicate, read-out: IC50 values for each replicate) was 52400 nM and 49800 nM and 47600 nM and 22000 nM and 50800 nM, the “Relative potency … Ratio + anion:no anion” value (MiaPaCa2; ratio of IC50, MiaPaCa2) was 0.75 and the “Selectivity indices relative to ARPE-19, Ratio + anion:no anion” value (MiaPaCa2; ratio of SI (ARPE-19), MiaPaCa2) was 1.106. The “Selectivity indices relative to MCF10A, Ratio + anion:no anion” value (MiaPaCa2; ratio of SI (MCF 10A), MiaPaCa2) was 0.118, the IC50 (A549; A549, mean of replicates, read-out: Mean IC50) was 501 nM and the IC50 (A549; A549, read-out: Mean IC50 values) was 501 nM. The IC50 (A549; A549, single replicate, read-out: IC50 values for each replicate) was 234 nM and 734 nM and 617 nM and 417 nM, the “Selectivity index (ARPE19)” value (A549; IC50 ARPE-19 / IC50 A549) was 261.42 and the “Selectivity index (MCF10A)” value (A549; IC50 MCF10A / IC50 A549) was 28.79. For the same compound, the “Relative potency … Ratio + anion:no anion” value (A549; ratio of IC50, A549) was 1.24, the “Selectivity indices relative to ARPE-19, Ratio + anion:no anion” value (A549; ratio of SI (ARPE-19), A549) was 0.670 and the “Selectivity indices relative to MCF10A, Ratio + anion:no anion” value (A549; ratio of SI (MCF 10A), A549) was 0.072. The IC50 (HT-29; HT29, mean of replicates, read-out: Mean IC50) was 214 nM, the IC50 (HT-29; HT29, read-out: Mean IC50 values) was 214 nM and the IC50 (HT-29; HT-29, single replicate, read-out: IC50 values for each replicate) was 91 nM and 254 nM and 236 nM and 228 nM and 262 nM. For the same compound, the “Selectivity index (ARPE19)” value (HT-29; IC50 ARPE-19 / IC50 HT29) was 612.01, the “Selectivity index (MCF10A)” value (HT-29; IC50 MCF10A / IC50 HT29) was 67.40 and the “Relative potency … Ratio + anion:no anion” value (HT-29; ratio of IC50, HT29) was 1.27. The “Selectivity indices relative to ARPE-19, Ratio + anion:no anion” value (HT-29; ratio of SI (ARPE-19), HT29) was 0.658, the “Selectivity indices relative to MCF10A, Ratio + anion:no anion” value (HT-29; ratio of SI (MCF 10A), HT29) was 0.070 and the IC50 (ARPE-19 non-cancer cells; ARPE-19, mean of replicates, read-out: Mean IC50) was 131000 nM. For the same compound, the IC50 (ARPE-19 non-cancer cells; ARPE-19, single replicate, read-out: IC50 values for each replicate) was 121000 nM and 118000 nM and 154000 nM, the IC50 (ARPE-19 non-cancer cells; ARPE-19 non-cancer, read-out: Mean IC50 values) was 131000 nM and the “Relative potency … Ratio + anion:no anion” value (ARPE-19 non-cancer cells; ratio of IC50, ARPE-19) was 0.83.
